Measurements taken from ChEMBL document CHEMBL5154935, “Design, Synthesis, and Biological Evaluation of Novel Evodiamine Derivatives as Potential Antihepatocellular Carcinoma Agents” (J Med Chem, 2022).
Active and inactive are the calls of the source. No cut-off for these calls is given here.

Key:
[1] = AUC (0 to t) in Sprague-Dawley rat at 80 mg/kg, ip measured upto 24 hrs by LC-MS analysis; type: ADME, organism-based; parameters: time < 24 hrs, dose 80 mg/kg, route ip; conditions: in vivo
[2] = Toxicity in BALB/c mouse xenografted with human Huh-7 cells assessed as aplastic anemia at 10 mg/kg, ip qd for 11 days and measured on day 11; type: organism-based; conditions: in vivo, 264 h, time 11 day
[3] = Toxicity in BALB/c mouse xenografted with human Huh-7 cells assessed as decrease in body weight at 10 mg/kg, ip qd for 11 days and measured every 2 days; type: organism-based; conditions: in vivo, 264 h, time 11 day
[4] = Acute toxicity in Kunming mouse assessed as frequency of eating at 400 mg/kg, ip measured for 14 consecutive days; type: organism-based; conditions: in vivo, 336 h, time 14 day
[5] = Toxicity in BALB/c mouse xenografted with human Huh-7 cells assessed as histopathological change in kidney at 10 mg/kg, ip qd for 11 days and measured after 12 days by hematoxylin and eosin staining based assay; type: organism-based; conditions: in vivo, 288 h, time 12 day
[6] = Toxicity in BALB/c mouse xenografted with human Huh-7 cells assessed as reduction in RBC levels at 10 mg/kg, ip qd for 11 days and measured on day 11; type: organism-based, Erythrocyte; conditions: in vivo, 264 h, time 11 day
[7] = tested on: Huh-7; test: Antiproliferative activity against human Huh-7 cells assessed as inhibition of cell viability treated for 24 to 72 hrs by MTT assay; type: functional, cell-based; conditions: time 24-72 hrs, DDE = dose-dependent effect
[8] = tested on: SK-HEP1; test: Induction of mitochondrial membrane potential changes in human SK-Hep1 cells assessed as decrease in TMRE positive cells at 10 to 80 nM incubated for 24 hrs by TMRE staining based flow cytometry (reference value: 87.92 %); type: functional; parameters: scale not given: the % may be the effect or the level left; conditions: dose 10-80 nM
[9] = Toxicity in BALB/c mouse xenografted with human Huh-7 cells assessed as histopathological change in spleen at 10 mg/kg, ip qd for 11 days and measured after 12 days by hematoxylin and eosin staining based assay; type: organism-based; conditions: in vivo, 288 h, time 12 day
[10] = tested on: SK-HEP1; test: Inhibition of cell migration in human SK-HEP1 cells incubated for 24 hrs by scratch wound healing assay; type: functional, cell-based; conditions: dose 3-18 nM, DDE = dose-dependent effect
[11] = Toxicity in BALB/c mouse xenografted with human Huh-7 cells assessed as reduction in WBC levels at 10 mg/kg, ip qd for 11 days and measured on day 11; type: organism-based; conditions: in vivo, 264 h, time 11 day
[12] = Toxicity in BALB/c mouse xenografted with human Huh-7 cells assessed as bone marrow suppression at 10 mg/kg, ip qd for 11 days and measured on day 11; type: organism-based; conditions: in vivo, 264 h, time 11 day
[13] = Toxicity in BALB/c mouse xenografted with human Huh-7 cells assessed as histopathological change in liver at 10 mg/kg, ip qd for 11 days and measured after 12 days by hematoxylin and eosin staining based assay; type: organism-based; conditions: in vivo, 288 h, time 12 day
[14] = tested on: Huh-7; test: Induction of cell cycle arrest in human Huh-7 cells assessed as accumulation at G1 phase at 80 nM treated for 24 hrs by PI staining based flow cytometry (reference value: 60.77 %); type: functional
[15] = tested on: SK-HEP1; test: Induction of apoptosis in human SK-Hep1 cells assessed as cell shrinkage incubated for 24 hrs by Giemsa staining based microscopy; type: functional; conditions: dose 12-60 nM, DDE = dose-dependent effect
[16] = tested on: SK-HEP1; test: Antiproliferative activity against human SK-Hep1 cells assessed as inhibition of cell viability at less than 0.068 uM treated for 24 hrs by MTT assay; type: functional
[17] = tested on: Huh-7; test: Antitumor activity against human Huh-7 cells xenografted in BALB/c mouse assessed as reduction in neo-vascularisation at 10 mg/kg, ip qd for 11 days and measured after 12 days by hematoxylin and eosin staining based assay; type: functional, organism-based; conditions: time 12.0 day
[18] = Toxicity in BALB/c mouse xenografted with human Huh-7 cells assessed as reduction in platelet levels at 10 mg/kg, ip qd for 11 days and measured on day 11; type: organism-based; conditions: in vivo, 264 h, time 11 day
[19] = MRT (0 to t) in Sprague-Dawley rat at 80 mg/kg, ip measured upto 24 hrs by LC-MS analysis; type: ADME, organism-based; conditions: in vivo
[20] = tested on: Huh-7; test: Antitumor activity in human Huh-7 cells xenografted in BALB/c mouse assessed as decrease in Ki-67 positive cells at 10 mg/kg, ip qd for 11 days and measured on day 12 by immunohistochemistry staining based assay; type: functional, organism-based; conditions: time 12.0 day
[21] = tested on: Huh-7; test: Induction of apoptosis in human Huh-7 cells assessed as late apoptotic cells at 40 nM incubated for 24 hrs by annexin V-FITC/PI staining flow cytometry (reference value: 1.33 %); type: functional
[22] = Acute toxicity in Kunming mouse assessed as frequency of defecation at 400 mg/kg, ip measured for 14 consecutive days; type: organism-based; conditions: in vivo, 336 h, time 14 day
[23] = Toxicity in BALB/c mouse xenografted with human Huh-7 cells assessed as histopathological change in lung at 10 mg/kg, ip qd for 11 days and measured after 12 days by hematoxylin and eosin staining based assay; type: organism-based; conditions: in vivo, 288 h, time 12 day
[24] = Half life in Sprague-Dawley rat at 80 mg/kg, ip measured upto 24 hrs by LC-MS analysis; type: ADME, organism-based; conditions: in vivo
[25] = Induction of apoptosis in rat HSC-T6 cells assessed as viable cells at 80 nM pretreated with TGFbeta-1 for 1 day followed by compound addition and measured after 24 hrs by flow cytometry (reference value: 97.5 %); type: functional; conditions: read-out: Activity
[26] = tested on: Huh-7; test: Induction of cell cycle arrest in human Huh-7 cells assessed as accumulation at G1 phase at 10 nM treated for 24 hrs by PI staining based flow cytometry (reference value: 60.77 %); type: functional
[27] = tested on: SK-HEP1; test: Induction of apoptosis in human SK-Hep1 cells assessed as necrotic cells at 40 nM incubated for 24 hrs by annexin V-FITC/PI staining flow cytometry (reference value: 0.73 %); type: functional
[28] = tested on: HSC-T6; test: Suppression of TGF-beta-1-stimulated rat HSC-T6 cells activation assessed as reduction in Col-1 levels at 10 to 80 nM preincubated with TGFbeta-1 followed by compound addition and measured after 24 to 48 hrs by ELISA; type: functional, cell-based; conditions: dose 10-80 nM, time 24-48 hrs
[29] = Toxicity in BALB/c mouse xenografted with human Huh-7 cells assessed as histopathological change in heart at 10 mg/kg, ip qd for 11 days and measured after 12 days by hematoxylin and eosin staining based assay; type: organism-based; conditions: in vivo, 288 h, time 12 day
[30] = Induction of apoptosis in rat HSC-T6 cells assessed as viable cells at 10 nM pretreated with TGFbeta-1 for 1 day followed by compound addition and measured after 24 hrs by flow cytometry (reference value: 97.5 %); type: functional; conditions: read-out: Activity
[31] = tested on: Huh-7; test: Antiproliferative activity against human Huh-7 cells assessed as inhibition of cell viability at less than 0.023 uM treated for 24 hrs by MTT assay; type: functional
[32] = tested on: SK-HEP1; test: Induction of mitochondrial membrane potential changes in human SK-Hep1 cells assessed as decrease in TMRE positive cells at 10 to 80 nM incubated for 24 hrs by TMRE staining based flow cytometry (reference value: 86.19 %); type: functional; parameters: scale not given: the % may be the effect or the level left; conditions: dose 10-80 nM
[33] = Acute toxicity in Kunming mouse assessed as frequency of defecation at 100 mg/kg, ip measured for 14 consecutive days; type: organism-based; conditions: in vivo, 336 h, time 14 day
[34] = Acute toxicity in Kunming mouse assessed as frequency of eating at 100 mg/kg, ip measured for 14 consecutive days; type: organism-based; conditions: in vivo, 336 h, time 14 day
[35] = Acute toxicity in Kunming mouse assessed as animal survival at 100 mg/kg, ip measured for 14 consecutive days; type: organism-based; conditions: in vivo, 336 h, time 14 day

With `CC(=O)Oc1ccc2[nH]c3c(c2c1)CCN1C(=O)c2cc(F)cc(F)c2N(c2cccc(F)c2)C31` (stereo not given) the AUC(0-t) at 24 h [1] was 3070 ng·h/mL, the Activity [2] was “Non-Toxic” and the Activity [3] was “Non-Toxic”. The Activity [4] was “Non-Toxic”, the Activity [5] was “Non-Toxic” and the Activity [6] was “Non-Toxic”. The Activity [7] was “Dde”, the Activity [8] was 65.21% and the Activity [9] was “Non-Toxic”. For the same molecule, the inhibition [10] was “Dde”, the Activity [11] was “Non-Toxic” and the Activity [12] was “Non-Toxic”. The Activity [13] was “Non-Toxic”, the Activity [14] was 17.18% and the Activity [15] was “Dde”. For the same molecule, the Activity [16] was greater than 80%, the Activity [17] was “Active” and the Activity [18] was “Non-Toxic”. The MRT last at 24 h [19] was 11.5 h, the Activity [20] was “Active” and the Activity [21] was 25.6%. For the same molecule, the Activity [22] was “Non-Toxic”, the Activity [23] was “Non-Toxic” and the half-life [24] was 7.24 h. The viability at 0.08 µM [25] was 41.7%, the Activity [26] was 51.9% and the Activity [27] was 2.44%. The inhibition [28] was “Active”, the Activity [29] was “Non-Toxic” and the viability at 0.01 µM [30] was 89.9%.
With `O=C1c2cc(F)cc(F)c2N(c2cccc(F)c2)C2c3[nH]c4ccc(O)cc4c3CCN12` (stereo not given) the Activity [31] was greater than 80%, the Activity [32] was 63.69% and the Activity [7] was “Dde”. The inhibition [10] was “Dde”, the Activity [14] was 10.64% and the Activity [15] was “Dde”. The Activity [21] was 13.5%, the Activity [33] was “Non-Toxic” and the viability at 0.08 µM [25] was 83.8%. The Activity [26] was 46.78%, the Activity [27] was 2.92% and the inhibition [28] was “Active”. For the same molecule, the Activity [34] was “Non-Toxic”, the Activity [35] was “Non-Toxic” and the viability at 0.01 µM [30] was 94%.
